Measured values published in US20240117402A1, “METHODS FOR (POLY) PEPTIDE TANDEM LIGATION AND CYCLIZATION” (Nanyang Technological University, priority 2021, published 2024).
Where no end group is shown, it is not given here.

Key:
butelase-1 [1] = test: Butelase-1-mediated intermolecular peptide ligation kinetics (HPLC); format: biochemical; settings: for Km / kcat: Butelase-1, limiting substrate 50-800 μM, partner peptide constant
Method: (§1) FIG. 3. Kinetic studies on VyPAL2- and butelase 1-catalyzed intermolecular ligations. A) Peptide 1 (SEQ ID NO:7) containing the C-terminal NHV sequence was used at varying concentrations (50 — 800 μM) to react with peptide 2 (SEQ ID NO:8) at constant concentration (1 mM); B) Peptide 4 (SEQ ID NO:9) at a constant concentration (1.5 mM) was reacted with the GF-peptide 5 (SEQ ID NO:10) at varying concentrations (50-800 μM). C) Peptide 2 at a constant concentration (1.5 mM) was reacted with the -NGF peptide 7 (SEQ ID NO:11) at varying concentrations (50-800 μM). The ligation product 3 or 6 was confirmed by ESI-MS. The reaction rates were calculated from the consumption of the limiting substrate 1, 5 or 7. Initial rate (V0) at different concentrations of the limiting substrate were used for Michaelis-Menten curve plotting. For each kinetic calculation, a lineweaver-Burk plot was also used to confirm the analysis.
(§2) PAL enzymes have been used extensively for protein single-site labeling and macrocyclization. However, using two PALs of different substrate specificity for bio-orthogonal and dual ligation remains unexplored. […] To determine the differences quantitatively, firstly the kinetics of VyPAL2 and butelase-1 toward peptide 1 or 7 which has a C-terminal NHV or NGF tripeptide motif respectively were studied (Table 1). The nucleophile substrate, used at a constant concentration, was peptide 2 which contains an N-terminal GI dipeptide motif. Reverse-phase analytical HPLC was used to monitor and quantify the ligation reaction. […] Similarly, kinetics of the two ligases towards a GF-starting nucleophile substrate, peptide 5, were also examined.
(§3) In this case, the acyl substrate, now kept at a constant concentration for the kinetic study, was peptide 4 which contains NGL at the C-terminus, a favorable motif for both VyPAL2 and butelase-1. It was shown that VyPAL2 has 5-fold catalytic efficiency than butelase-1 towards the GF-peptide substrate 5 (Table 1 and FIG. 3). In summary, the kinetic studies confirm the differential activities of butelase-1 and VyPAL2 toward certain substrate sequences, which provide strong support for a two-PAL, bio-orthogonal tandem ligation scheme for protein dual labeling.

VyPAL2 = test: VyPAL2-mediated intermolecular peptide ligation kinetics (HPLC); format: biochemical, Viola yedoensis; settings: for Km / kcat: VyPAL2, limiting substrate 50-800 μM; for Km: partner peptide constant; for kcat: partner peptide constant (1 with 2 at 1 mM; 5 with 4 at 1.5 mM; 7 with 2 at 1.5 mM); for catalytic activity/efficiency of VyPAL2 relative to butelase-1 towards the substrate: intermolecular ligation
Method: as §1, §2, §3

butelase-1 [2] = test: Butelase-1-catalyzed peptide cyclization (substrate screen, pH scan, kinetics); format: biochemical; settings: 25 nM butelase-1, 5 μM peptide, pH 4.5, 25° C., 60 min
Method: FIG. 9. Screening of P1′-Asp peptides for cyclization by A) VyPAL2, B) butelase-1 and C) OaAEP1b. Quantitative summary of reaction yields of the reaction mixtures. For each reaction, 25 nM of the enzyme and 5 μM of the peptide substrate (21a-21i) were mixed and reacted at pH 4.5, 25° C. for 60 min. The positive control peptide 21j was performed at the same conditions except at pH 7.4. Average yields and SDs were calculated from experiments performed in triplicate. The amino acid sequence of the peptides used are set forth in SEQ ID Nos. 15-24.
FIG. 10. Ligation activity of three different ligases under different pH and substrate. Cyclization activity of A) VyPAL2, B) Butelase-1 or C) OaAEP1b towards substrate 21e-DSL and 21j-NGL; Fold difference was calculated using the cyclization rate of 21j-NGL divided by that of 21e-DSL. All the results were the average reaction rate at different pH in triplicate experiments based on MALDI-TOF analysis. Light grey text in the “Fold difference” axis marks to the maximum fold difference.
FIG. 11. Enzymatic activity of three different ligases on the cyclization reaction of P1-Asp peptide 21e-DSL or 21a-DGL and P1-Asn-peptide 21j-NGL. A) Scheme of PAL-mediated P1-Asp peptide cyclization; B) Enzymatic kinetics of VyPAL2 in cyclizing 21e-DSL at pH 4.5; C) Enzymatic kinetics of VyPAL2 in cyclizing 21e-DSL at pH 7.0; D) Enzymatic kinetics of OaAEP1b in cyclizing 21a-DGL at pH 5.5; E) Enzymatic kinetics of Butelase-1 in cyclizing 21e-DSL at pH 4.5. F) Scheme of PAL-mediated cyclization of peptide 21j-NGL; G). Enzymatic kinetics of butelase-1 in cyclizing […] at pH 4.5; H)
Enzymatic kinetics of VyPAL2 in cyclizing 21j-NSL at pH 4.5; I) Enzymatic kinetics of butelase-1 in cyclizing 21j-NSL at pH 7.4; J) Enzymatic kinetics of OaAEP1b in cyclizing 21j-NSL at pH 7.0. Sequences of peptides used are set forth in SEQ ID Nos. 15, 19, 24.
PALs recognize a tripeptide motif Asx-P1′-P2′ in the acyl donor substrate for their catalyzed ligation reactions. Because the formation of the acyl-enzyme thioester intermediate is the rate-limiting step, the leaving group P1′-P2′ also plays an important role in determining the catalytic kinetics of a particular 40 PAL-mediated reaction. Previous studies have determined Leu as a preferred P2′ residue. To identify the most favorable P1′ residues for PAL-catalyzed Asp-ligation, a panel of peptides (peptide 21a-21j) with C-terminal DXL and N-terminal GI motifs was synthesized and cyclization reactions performed. Peptide 21j with a C-terminal NGL, a P1-Asn peptide favored by VyPAL2, was used for comparison with the P1-Asp peptides 21a-21i. […] Meanwhile, the P1′ substrate specificities of the two other ligases - Butelase-1 and OaAEP1b - were also evaluated by using the same substrates 21a-21j.
A pH scan experiment with the other two ligases: butelase-1 and OaAEP1 b, for their cyclase activity on 21e and 21j was also conducted. […] In fact, the difference in reaction efficiency between 21j and 21e was about 950 times at pH 7.4 (FIG. 10). […] This makes VyPAL2 a more efficient ligase than butelase-1 for Asp-mediated protein modification.

VyPAL2, sequence (as listed by the source): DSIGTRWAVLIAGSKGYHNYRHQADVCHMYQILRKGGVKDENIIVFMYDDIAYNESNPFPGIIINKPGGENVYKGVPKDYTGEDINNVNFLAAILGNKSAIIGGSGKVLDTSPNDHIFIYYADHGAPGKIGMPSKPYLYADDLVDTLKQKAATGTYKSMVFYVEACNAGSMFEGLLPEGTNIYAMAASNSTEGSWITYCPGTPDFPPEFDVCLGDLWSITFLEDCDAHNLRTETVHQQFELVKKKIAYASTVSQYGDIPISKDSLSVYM
butelase-1, sequence (as listed by the source): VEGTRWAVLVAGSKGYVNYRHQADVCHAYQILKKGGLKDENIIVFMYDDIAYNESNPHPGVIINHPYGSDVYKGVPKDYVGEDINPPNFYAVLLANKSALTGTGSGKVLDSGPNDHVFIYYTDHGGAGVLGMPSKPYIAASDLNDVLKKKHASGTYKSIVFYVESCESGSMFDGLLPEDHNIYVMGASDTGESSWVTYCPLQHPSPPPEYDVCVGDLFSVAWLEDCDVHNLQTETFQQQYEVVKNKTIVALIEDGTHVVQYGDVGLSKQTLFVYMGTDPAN

Ac-KKLAVINGF (Ac-KKLAVINGF-NH2) [Peptide 7]
Km (butelase-1 [1]): 175 ± 1 µM | kcat (butelase-1 [1]): 0.46 ± 0.04 S^−1 | Km (VyPAL2): 155 ± 15 µM | kcat (VyPAL2): 1.10 ± 0.03 S^−1 | catalytic activity/efficiency of VyPAL2 relative to butelase-1 towards the substrate (VyPAL2): about 3 times

Ac-KKLAVINHV (Ac-KKLAVINHV-NH2) [Peptide 1]
Km (butelase-1 [1]): 85 ± 3 µM | kcat (butelase-1 [1]): 1.47 ± 0.04 S^−1 | catalytic activity of butelase-1 relative to VyPAL2 towards the substrate (butelase-1 [1]; intermolecular ligation): about 18 times | Km (VyPAL2): 182 ± 6 µM | kcat (VyPAL2): 0.17 ± 0.01 S^−1

GFGGIKA (GFGGIKA-NH2) [Peptide 5]
Km (butelase-1 [1]): 365 ± 3 µM | kcat (butelase-1 [1]): 1.55 ± 0.01 S^−1 | Km (VyPAL2): 424 ± 26 µM | kcat (VyPAL2): 8.29 ± 0.48 S^−1 | catalytic activity/efficiency of VyPAL2 relative to butelase-1 towards the substrate (VyPAL2): 5 times

GISTKSIPPISYRDKL (GISTKSIPPISYRDKL-NH2) [Peptide 21g]
substrate preference among P1-Asp peptides (butelase-1 [2]): slight preference

GISTKSIPPISYRDLL (GISTKSIPPISYRDLL-NH2) [Peptide 21d]
substrate preference among P1-Asp peptides (butelase-1 [2]): slight preference
